This is an account of results in DBAASP.

Test systems include Enterococcus faecalis VR; Enterococcus faecium VR; Staphylococcus aureus MR; Enterococcus faecium; Enterococcus faecalis; Salmonella typhimurium; Serratia marcescens; Bacillus subtilis; Streptococcus pneumoniae; Staphylococcus aureus; Candida albicans; Saccharomyces cerevisiae; Pseudomonas putida; Cryptococcus neoformans; Escherichia coli; Streptococcus mutans.
What all share (experiment): ≥ marks a high value that may be exact or a test limit, other limits are often not marked, values filed in µg/mL are converted to µM
Assay [1] has as its system Escherichia coli KCTC 1682.
Assay [2] relates to Staphylococcus aureus KCTC 1621.
Assay [3] has as its system Bacillus subtilis KCTC 3068.
Assay [4] has as its system Staphylococcus epidermidis KCTC 1917.
Assay [5] relates to Pseudomonas aeruginosa KCTC 1637.
Assay [6] has as its system Salmonella typhimurium KCTC 1926.
For assay [7], the system named is Staphylococcus aureus ATCC 43300.
In assay [8] the test system is Candida albicans ATCC 90028.
Assay [9] has as its system Escherichia coli ATCC 25922.
Assay [10] relates to Pseudomonas aeruginosa ATCC 27853.
The subject of assay [11] is Cryptococcus neoformans ATCC 208821.
In assay [12] the test system is Klebsiella pneumoniae ATCC 700603.
Assay [13] concerns Acinetobacter baumannii ATCC 19606.
The test system of assay [14] is Staphylococcus aureus ATCC 25923.
The subject of assay [15] is Salmonella enterica subsp. enterica serovar Typhimurium ATCC 14028.
The subject of assay [16] is Klebsiella pneumoniae ATCC 13883.
Assay [17] concerns Staphylococcus epidermidis ATCC 51625.
Assay [18] relates to Streptococcus pyogenes ATCC 19615.
Assay [19] concerns Enterococcus faecalis ATCC 29212.
The subject of assay [20] is Staphylococcus aureus ATCC BAA-44.

In brackets after ≈: the same amount, converted by molar mass. A value given as a limit tells only on which side of the number the result lay.

Turning to `CSCC[C@H](NC(=O)[C@H](C)NC(=O)[C@H](CC(C)C)NC(=O)[C@H](CS)NC(=O)[C@H](Cc1cnc[nH]1)NC(=O)[C@H](C)NC(=O)[C@H](C)N)C(=O)N[C@@H](CCCN=C(N)N)C(=O)N[C@@H](CCCN=C(N)N)C(=O)N[C@@H](CCCCN)C(N)=O` [AAHCLAMRRK], the MIC (in general, the lowest concentration found to suppress growth) worked out at 30 µM in the assay on Enterococcus faecalis VR; 30 µM in assay [1]; 30 µM in assay [2]; 7.5 µM in the assay on Enterococcus faecium VR; 15 µM in assay [3]; 30 µM in assay [4]. In addition, the MIC (in assay [5]; against Staphylococcus aureus MR; in the assay on Enterococcus faecium; in assay [6]; against Enterococcus faecalis) was 30 µM in each case.
For `CC(C)C[C@H](NC(=O)[C@H](CS)NC(=O)[C@H](CCCN=C(N)N)NC(=O)[C@H](C)NC(=O)[C@H](C)N)C(=O)N[C@@H](CO)C(=O)N[C@@H](CCC(N)=O)C(=O)N[C@@H](CCCN=C(N)N)C(=O)N[C@@H](CCCN=C(N)N)C(=O)N[C@@H](CCCCN)C(N)=O` [AARCLSQRRK], the MIC came to 30 µM (≈ 35.6 µg/mL) with Enterococcus faecalis VR; 30 µM (≈ 35.6 µg/mL) in assay [1]; 30 µM (≈ 35.6 µg/mL) in assay [2]; 30 µM (≈ 35.6 µg/mL) against Enterococcus faecium VR; 30 µM (≈ 35.6 µg/mL) in [3]; 15 µM (≈ 17.8 µg/mL) in assay [4]. Further, the minimal inhibitory concentration (MIC) in [5] is 30 µM (≈ 35.6 µg/mL); against Staphylococcus aureus MR, 30 µM (≈ 35.6 µg/mL); in the assay with Enterococcus faecium it was 30 µM (≈ 35.6 µg/mL); in assay [6], 15 µM (≈ 17.8 µg/mL); in the assay on Enterococcus faecalis, 30 µM (≈ 35.6 µg/mL).
On to `CC[C@H](C)[C@H](NC(=O)[C@H](CS)NC(=O)[C@H](Cc1cnc[nH]1)NC(=O)[C@H](CC(C)C)NC(=O)[C@H](C)N)C(=O)N[C@@H](C)C(=O)N[C@@H](CC(C)C)C(=O)N[C@@H](CCCN=C(N)N)C(=O)N[C@@H](CCCCN)C(=O)N[C@@H](CCCCN)C(N)=O` [ALHCIALRKK], for which the minimal inhibitory concentration (MIC) was 15 µM (≈ 17.3 µg/mL) in the assay with Enterococcus faecalis VR; 15 µM (≈ 17.3 µg/mL) in [1]; 7.5 µM (≈ 8.64 µg/mL) in [2]; 3.8 µM (≈ 4.38 µg/mL) in the assay on Enterococcus faecium VR; 7.5 µM (≈ 8.64 µg/mL) in assay [3]; 15 µM (≈ 17.3 µg/mL) in assay [4]. For the same compound, the minimal inhibitory concentration (MIC) in [5] is 15 µM (≈ 17.3 µg/mL); against Staphylococcus aureus MR, 7.5 µM (≈ 8.64 µg/mL); against Enterococcus faecium it was 15 µM (≈ 17.3 µg/mL); in [6] it was 15 µM (≈ 17.3 µg/mL); against Enterococcus faecalis, 15 µM (≈ 17.3 µg/mL).
`CC(C)C[C@H](NC(=O)CNC(=O)[C@H](C)NC(=O)[C@@H](N)CCCN=C(N)N)C(=O)N[C@@H](CCC(N)=O)C(=O)N[C@@H](Cc1ccccc1)C(=O)N[C@@H](CC(C)C)C(=O)N[C@H](C(=O)NCC(=O)N[C@@H](CCCN=C(N)N)C(=O)N[C@H](C(=O)N[C@@H](Cc1cnc[nH]1)C(=O)N[C@@H](CCCN=C(N)N)C(=O)N[C@@H](CC(C)C)C(=O)N[C@@H](CC(C)C)C(=O)N[C@@H](CCCN=C(N)N)C(=O)N[C@@H](CCCCN)C(=O)O)C(C)C)C(C)C` [RAGLQFLVGRVHRLLRK]: the MIC against Salmonella typhimurium amounted to 7.92 µM (≈ 16 µg/mL); against Serratia marcescens, 31.7 µM (≈ 64 µg/mL); against Bacillus subtilis, 15.8 µM (≈ 32 µg/mL); against Streptococcus pneumoniae it was 15.8 µM (≈ 32 µg/mL); against Staphylococcus aureus, 15.8 µM (≈ 32 µg/mL); in the assay on Candida albicans it was 7.92 µM (≈ 16 µg/mL). For the same compound, the MIC was found to be 7.92 µM (≈ 16 µg/mL) against Saccharomyces cerevisiae; 7.92 µM (≈ 16 µg/mL) with Pseudomonas putida; 7.92 µM (≈ 16 µg/mL) with Cryptococcus neoformans; 15.8 µM (≈ 32 µg/mL) in the assay with Escherichia coli; 15.8 µM (≈ 32 µg/mL) against Streptococcus mutans.
In the case of `CC(C)C[C@H](NC(=O)[C@H](CC(C)C)NC(=O)[C@H](CCCN=C(N)N)NC(=O)[C@H](Cc1cnc[nH]1)NC(=O)[C@@H](NC(=O)[C@H](CCCN=C(N)N)NC(=O)[C@H](CCCN=C(N)N)NC(=O)[C@H](CC(C)C)NC(=O)[C@H](CC(C)C)NC(=O)[C@H](CCCN=C(N)N)NC(=O)[C@H](Cc1cnc[nH]1)NC(=O)[C@@H](NC(=O)[C@H](CCCN=C(N)N)NC(=O)[C@H](CCCN=C(N)N)NC(=O)[C@H](CC(C)C)NC(=O)[C@H](CC(C)C)NC(=O)[C@H](CCCN=C(N)N)NC(=O)[C@H](Cc1cnc[nH]1)NC(=O)[C@@H](NC(=O)[C@@H](N)CCCN=C(N)N)C(C)C)C(C)C)C(C)C)C(=O)N[C@@H](CCCN=C(N)N)C(=O)O` [RVHRLLRRVHRLLRRVHRLLR], the minimum inhibitory concentration (MIC) against Salmonella typhimurium is 1.42 µM (≈ 4 µg/mL); with Serratia marcescens, 22.8 µM (≈ 64 µg/mL); against Bacillus subtilis it was 2.85 µM (≈ 8 µg/mL); in the assay with Streptococcus pneumoniae, no less than 45.5 µM; in the assay with Staphylococcus aureus it was 22.8 µM (≈ 64 µg/mL); in the assay with Candida albicans, greater than 91.1 µM. Further, the MIC in the assay on Saccharomyces cerevisiae was no less than 91.1 µM; with Pseudomonas putida it was 22.8 µM (≈ 64 µg/mL); against Cryptococcus neoformans it was no less than 45.5 µM; with Escherichia coli, 45.5 µM (≈ 128 µg/mL); in the assay on Streptococcus mutans it was 11.4 µM (≈ 32 µg/mL).
For the compound `NC(N)=NCCC[C@H](NC(=O)[C@H](Cc1cnc[nH]1)NC(=O)[C@H](CO)NC(=O)[C@H](CCCN=C(N)N)NC(=O)[C@H](CCCN=C(N)N)NC(=O)[C@H](CS)NC(=O)[C@H](CCCN=C(N)N)NC(=O)[C@H](Cc1cnc[nH]1)NC(=O)[C@H](Cc1cnc[nH]1)NC(=O)[C@@H](N)CO)C(=O)N[C@@H](CS)C(=O)O` [SHHRCRRSHRC], the MIC in [7] was greater than 22.3 µM; in assay [8] it was 22.3 µM (≈ 32 µg/mL); in assay [9] it was greater than 22.3 µM; in assay [10], greater than 22.3 µM; in assay [11], 22.3 µM (≈ 32 µg/mL); in assay [12] it was greater than 22.3 µM. For the same compound, the MIC in assay [13] was greater than 22.3 µM.
Regarding `CC(C)C[C@H](NC(=O)[C@H](CCCN=C(N)N)NC(=O)[C@H](CO)NC(=O)[C@H](Cc1cnc[nH]1)NC(=O)[C@H](CCCN=C(N)N)NC(=O)[C@@H]1CCCN1C(=O)[C@H](CCCN=C(N)N)NC(=O)[C@H](Cc1cnc[nH]1)NC(=O)[C@@H]1CCCN1C(=O)[C@H](CO)NC(=O)[C@H](CC(C)C)NC(=O)[C@H](CO)NC(=O)[C@H](CCCN=C(N)N)NC(=O)[C@H](CCCCN)NC(=O)[C@@H](NC(=O)[C@@H](NC(=O)CNC(=O)[C@H](CCCN=C(N)N)NC(=O)[C@H](Cc1cnc[nH]1)NC(=O)[C@H](Cc1c[nH]c2ccccc12)NC(=O)[C@H](Cc1ccccc1)NC(=O)[C@H](Cc1cnc[nH]1)NC(=O)[C@H](Cc1ccc(O)cc1)NC(=O)[C@@H](N)Cc1ccc(O)cc1)C(C)C)[C@@H](C)O)C(=O)N[C@@H](CCC(N)=O)C(=O)N[C@@H](CCCN=C(N)N)C(=O)O` [YYHFWHRGVTKRSLSPHRPRHSRLQR], the MIC in assay [14] came out at 4 µM (≈ 13.4 µg/mL); in assay [15], 4 µM (≈ 13.4 µg/mL); with Bacillus subtilis it was 2 µM (≈ 6.72 µg/mL); in assay [10], 4 µM (≈ 13.4 µg/mL); in assay [16] it was 2 µM (≈ 6.72 µg/mL); in assay [17] it was 6 µM (≈ 20.2 µg/mL). In addition, the MIC in assay [18] was 4 µM (≈ 13.4 µg/mL); in assay [19], 4 µM (≈ 13.4 µg/mL); against Escherichia coli, 2 µM (≈ 6.72 µg/mL); in assay [20], 6 µM (≈ 20.2 µg/mL).
